The text below walks through data of ChEMBL document CHEMBL1132909 (Bioorg Med Chem Lett, 2000).

pIC50: −log10 of the molar value.

The target of this assay is Neuraminidase (Influenza A virus (A/Puerto Rico/8/1934(H1N1)), UniProt P03468). Description: Inhibition of neuraminidase in Influenza A. In kind it is functional.
Chain of Neuraminidase (Influenza A virus (A/Puerto Rico/8/1934(H1N1)), UniProt P03468) (P03468 whole entry): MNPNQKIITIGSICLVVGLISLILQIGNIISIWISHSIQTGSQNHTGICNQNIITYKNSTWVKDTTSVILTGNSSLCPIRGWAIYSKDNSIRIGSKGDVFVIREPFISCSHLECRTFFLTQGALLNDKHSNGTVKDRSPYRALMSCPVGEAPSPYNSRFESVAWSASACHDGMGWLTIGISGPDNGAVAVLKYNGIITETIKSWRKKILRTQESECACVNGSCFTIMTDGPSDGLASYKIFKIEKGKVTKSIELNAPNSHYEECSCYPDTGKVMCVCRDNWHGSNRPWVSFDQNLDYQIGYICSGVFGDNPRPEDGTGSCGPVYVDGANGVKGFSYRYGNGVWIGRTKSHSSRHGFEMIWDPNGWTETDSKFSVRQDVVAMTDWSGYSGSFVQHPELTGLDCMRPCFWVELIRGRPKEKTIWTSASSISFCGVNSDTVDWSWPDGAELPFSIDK
In general, pIC50 refers to the IC50 on a negative log10 scale, so that one unit is a factor of ten. Lower therefore signals a high IC50. `CC(=O)N[C@H]1[C@H](N2CCC(C)CC2)C=C(C(=O)O)C[C@@H]1N` gave a negative-log IC50 (pIC50) of 7.29. The result for `CC(=O)N[C@H]1[C@H](N2C3CCCC2CC3)C=C(C(=O)O)C[C@@H]1N` reads 7.49. `CCC1CCN([C@@H]2C=C(C(=O)O)C[C@H](N)[C@H]2NC(C)=O)CC1` gave a negative-log IC50 (pIC50) of 7.28. Take `CC(=O)N[C@H]1[C@H](N2CCC2)C=C(C(=O)O)C[C@@H]1N`: the pIC50 was 6.00. Regarding `CC(=O)N[C@H]1[C@H](N2CCCCC[C@@H]2CO)C=C(C(=O)O)C[C@@H]1N`, the pIC50 was 8.10. The result for `CC(=O)N[C@H]1[C@H](N2CCOCC2)C=C(C(=O)O)C[C@@H]1N` reads 6.59; that for `CCCC1CCN([C@@H]2C=C(C(=O)O)C[C@H](N)[C@H]2NC(C)=O)CC1`, 7.40; that for `CC(=O)N[C@H]1[C@H](N2CCCCCC2)C=C(C(=O)O)C[C@@H]1N`, 7.46. Next, `CC(=O)N[C@H]1[C@H](N2CCCCCCC2)C=C(C(=O)O)C[C@@H]1N`: 7.59; `CC(=O)N[C@H]1[C@H](N2CCN(C)CC2)C=C(C(=O)O)C[C@@H]1N`: 5.72. `CC(=O)N[C@H]1[C@H](N2CCCCC2)C=C(C(=O)O)C[C@@H]1N`: the pIC50 is 7.60. Next, `CC(=O)N[C@H]1[C@H](N2CCCC2)C=C(C(=O)O)C[C@@H]1N`: 6.51; `CC(=O)N[C@H]1[C@H](N2CCCCCCCC2)C=C(C(=O)O)C[C@@H]1N`: 7.12. For the compound `CCC1(CC)CN([C@@H]2C=C(C(=O)O)C[C@H](N)[C@H]2NC(C)=O)C1`, the negative logarithm of the IC50 (pIC50) was 6.58.
